Here are results for three molecules from US8981179B2, “Transgenic non-human animal and uses thereof” (Sanofi, priority 2009, dated 2015).

In one assay the test system is beta-cell. Nature of the assay: Effect of beta-cell toxin on induction of CRE-Luc by AVE0010. It is filed as in vivo, mouse. Conditions: line 11, STZ 200 mpk, ip, imaged four days later after AVE0010.
Assay [1] is described as follows: Blood glucose in unfasted CRE-luc mice. It is filed as in vivo, mouse. The following applies: line 11, STZ 200 mpk, ip, unfasted mice. How it is done:
The induction of CRE-Luc by AVE0010 is likely beta-cell-specific (FIG. 31). Animals were treated as described in FIG. 30. Blood glucose levels were measured by tail vein nicking on unfasted mice. Glucose levels were read on a Bayer glucometer. Glucose levels are shown as mg glucose/[…]. Fold induction is the luciferase bioimaging levels of AVE10 dosing versus the baseline signals. Blood glucose levels (BG) were increased by STZ (upper left panel). Non-fasting BG levels were reduced by AVE0010 (0.1 mg/kg, sc).

Assay [2] concerns the target T1, prostaglandin D2 receptor 1 (DP1) (Mus musculus, UniProt P70263).
T1 construct: Primary microglia were isolated from the cortices from P2 mice; endogenous in cells; host or cells: whole splenocytes, CD4+ T cells and primary microglia (P2 cortices), CreLuc mouse line 64
T1 sequence (P70263 1-357): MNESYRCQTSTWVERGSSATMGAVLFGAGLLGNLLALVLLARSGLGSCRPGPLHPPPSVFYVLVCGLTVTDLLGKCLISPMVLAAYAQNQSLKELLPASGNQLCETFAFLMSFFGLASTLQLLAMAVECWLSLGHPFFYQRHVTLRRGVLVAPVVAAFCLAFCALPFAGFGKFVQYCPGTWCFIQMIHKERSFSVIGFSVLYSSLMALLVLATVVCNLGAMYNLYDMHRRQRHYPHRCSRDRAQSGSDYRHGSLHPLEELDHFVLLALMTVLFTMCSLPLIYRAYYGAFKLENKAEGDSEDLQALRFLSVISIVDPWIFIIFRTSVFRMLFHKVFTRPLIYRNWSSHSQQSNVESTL
Description: Whole splenocytes CreLuc luciferase assay, DP1 agonist. It is filed as cell-based. Conditions: line 64 whole splenocytes, 10 uM, 4 hours. The protocol: Whole splenocyte preps isolated from CreLuc mice were used to show the effects of general cAMP inducers such as forskolin and rolipram, as well as Gs agonists on luciferase expression (FIG. 16). Spleens were harvested from the animals in 1×HBSS (Invitrogen, Carlsbad, Calif., cat#14025). The cells were then isolated by mechanically disrupting the spleen capsule using the end of a 5 ml syringe in 5 mls of D-PBS (Invitrogen, Carlsbad, Calif., cat#14190). The cell suspension was then passed through a 70 um strainer into a 50 ml conical tube. The cells were then spun down at 800 rpm, then resuspended and incubated for 6 minutes at room temperature in 5 ml of 1× Pharm Lyse solution (BD BioSciences, cat#555899). Cells were then washed by adding 28 mls of media consisting of RPMI 1640 (Invitrogen, Carlsbad, Calif., cat#11875), 10% FCS (Invitrogen, Carlsbad, Calif., cat#16000), 1% pen/strep (Invitrogen, Carlsbad, Calif., cat#15070) and 0.1% β-mercaptoethanol (Invitrogen, Carlsbad, Calif., cat#21985). Cells were diluted to 2×10^6/ml, and 100 ul of the cells were plated per well in a 96 well white opaque plate. Half of the cells were stimulated for 24 hours with anti-CD3 antibody (BD Pharmingen, cat#553058), the other half were untreated. […] After 4 hours, 100 μl of BrightGlo (Promega, Madison, Wis., cat#E2610) and the assay was read on a TopCount luminometer. […]

The next assay deals with T2, DP (Mus musculus, UniProt P70263).
T2 construct: Primary microglia were isolated from the cortices from P2 mice; endogenous in cells; host or cells: whole splenocytes, CD4+ T cells and primary microglia (P2 cortices), CreLuc mouse line 64
T2 sequence (P70263 1-357): T1 sequence (P70263 1-357)
Nature of the assay: Isolated CD4+ T cells CreLuc luciferase assay, DP agonist. The class given is cell-based. Conditions: line 64 CD4+ T cells, anti CD3 24 hours, 10 μM, 4 hours. The protocol: The effects of different Gs agonists on luciferase levels in anti CD3 stimulated CD4+ T cells isolated from CreLuc mice was studied (FIG. 19). Whole splenocyte populations were prepared by mechanical disruption. CD4+ cells were then isolated by MACS Magnetic Separation with Positive Selection (Miltenyi Biotec cat#130-049-201). The cells, 1.5×10^5 per well, were then plated on 96 well white opaque plates and then stimulated with anti CD3 antibodies (BD Pharmingen cat#553058). After 24 hours, compounds were added for an additional 4 hours. Gs agonists for DP (BW245C), EP2 (EX00000173A) and ADβR (isoproterenol) were all used at 10 μM. Forskolin 5 μM, and rolipram 10 μM. BrightGlo (Promega, Madison, Wis., cat#E2610) was added and the assay was read on the TopCount. A 25-fold increase is observed in cells treated with forskolin and rolipram. […] The transgene was responsive to specific Gs agonists as well as general modulators of the cAMP pathway.

A further assay deals with T3, DP1 receptor (Mus musculus, UniProt P70263).
T3 construct: Primary microglia were isolated from the cortices from P2 mice; endogenous in cells; host or cells: whole splenocytes, CD4+ T cells and primary microglia (P2 cortices), CreLuc mouse line 64
T3 sequence (P70263 1-357): T1 sequence (P70263 1-357)
Nature of the assay: Primary microglia CreLuc luciferase assay, DP agonist. The class given is cell-based. Conditions: 10 μM, 4 hours. How it is done: (§1) Induction of luciferase expression in microglia isolated from CreLuc mice by the general cAMP activators, forskolin and rolipram, and an agonist for the DP receptor, BW245C was examined (FIG. 22). Primary microglia were isolated from the cortices from P2 mice in media consisting of DMEM (GIBCO Cat#11995), 10% FBS (GIBCO Cat#16140) and 1% Penicillin-Streptomycin 100× (GIBCO Cat#15140). The cells were plated in 96 well format on Poly-D-Lysine-coated plates. Cells were either left untreated or stimulated for 2 hours with 100 ng/ml LPS. Compounds were then added for an additional 4 hours before the Bright Glo assay was run. The compounds used were 5 μM forskolin, 10 μM rolipram or the combination of the two, or the Gs agonist for the DP1 receptor, BW245C at 10 μM. In unstimulated conditions, microglia are unresponsive to general cAMP modulators and the specific Gs agonist for the DP receptor. However, when microglia were stimulated with LPS, the cells became responsive to forskolin and BW245C.

For assay [3], the system named is plasma cAMP. Description: In vivo stimulation of cAMP in plasma (ELISA). Also noted: species or system FVB/Tac mice. The following applies: FVB/Tac females, i.p., forskolin 5 mg/kg, rolipram 10 mg/kg, 30 minutes. The protocol:
FVB/Tac females were dosed with either vehicle (1% DMSO) or drugs i.p., then 30 minutes later, blood samples were collected and assayed for cAMP by ELISA (Assay Designs, Ann Arbor, Mich., cat#900-163). The drugs used are as follows: 5 mg/kg forskolin (F) (Sigma F6886), 5 mg/kg water soluble forskolin (H20F) (Calbiochem 344273), 10 mg/kg rolipram (R) (Sigma R6520) or combinations of either forskolin plus rolipram (F/R). […] Forskolin increases cAMP levels by activating adencylate cyclase while inhibitors of PDE4, such as rolipram, raise plasma cAMP by preventing hydrolysis of cAMP. A combination of rolipram and water soluble forskolin increases cAMP levels in vivo 14 fold. This combination was used to provide a large window of induction for founder screening by bioimaging, a representative study is shown in FIG. 6.
FIG. 5B is a cAMP assay on plasma levels in wild-type mice following various treatment with forskolin (F), rolipram (R) or a combination of forskolin and rolipram (F/R). […]
In general terms: In an ELISA, binding on a coated surface is turned into a signal by an enzyme label.

Assay [4] concerns cAMP (CreLuc luciferase reporter). Nature of the assay: Primary microglia CreLuc luciferase assay, general cAMP activators. The class given is cell-based, mouse. The following applies: line 64, unstimulated, 5 μM forskolin, 10 μM rolipram, 4 hours. The protocol: as §1
The subject of assay [5] is plasma cAMP. Conditions: Balb/c mice, 10 mg/kg, blood harvested after 20 minutes; cited from earlier work.

Description for beta-cell: Male CRE-luc mice (line 11) were imaged before and after AVE0010 (0.1 mg/kg, sc) treatment. […] Then, the animals were treated with vehicle or STZ (200 mpk, ip). Four days later, they were imaged again after AVE0010 treatment.

With `CN(N=O)C(=O)N[C@H]1C(O)O[C@H](CO)[C@@H](O)[C@@H]1O` (mixture of isomers) [STZ, streptozotocin], the “luciferase induction by AVE0010 compared to vehicle group” value with beta-cell is given as “decreased luciferase induction”. Moreover, the “blood glucose levels (BG)” value in assay [1] is “increased”.
Regarding `O=C(O)CCCCCCC1C(=O)NC(=O)N1CCC(O)C1CCCCC1` (stereo not drawn) [BW245C], the “luciferase versus DMSO only control (t-test)” value in assay [2] is “Statistically significant increases”. The molecule also showed an increase of luciferase on DP of 3 fold. Moreover, the “luciferase response of LPS stimulated microglia” value at DP1 receptor (line 64, 100 ng/ml LPS 2 hours) is given as “responsive”. The “luciferase response of unstimulated microglia” value at DP1 receptor (line 64, unstimulated) was “unresponsive”.
As to `COc1ccc(C2CNC(=O)C2)cc1OC1CCCC1` (stereo not drawn) [rolipram], the “elevation of circulating cAMP levels vs vehicle” value in the assay with plasma cAMP [3] was “statistically significance in their elevation”. Also, the “luciferase response of unstimulated microglia” value in assay [4] is recorded as “unresponsive”. In the assay on plasma cAMP [5], the “plasma cAMP levels” value is on record as “significantly increase”.
